Key:
[1] = system: MCF-7; experiment: MTT cell viability assay; assay type: cell-based, human; conditions: 72 h
Protocol: (§1) The cell lines used were purchased from American Type Culture Collection (ATCC, Manassas, VA, USA). Human breast cancer cells MCF-7 and MDA-MB-231, human mammary epithelial cell line MCF-10A, and mouse BALB/3T3 embryonic fibroblasts were cultured as already described by some of us. The murine macrophage cell line RAW 264.7 was maintained in Dulbecco’s Modified Eagle’s Medium (DMEM) high glucose (4.5 g/L) supplemented with 10% Fetal Bovine Serum (FBS), 1% L-glutamine, and 100 units/mL of penicillin/streptomycin. The cell cultures were maintained at the temperature of 37 °C in a humidified atmosphere containing 5% CO2.
(§2) The 3-(4,5-dimethylthiazol-2-yl)-2,5-diphenyl-2H-tetrazolium bromide (MTT) assay (Sigma Aldrich (St. Louis, MO, USA)) was carried out to study the in vitro anticancer activities of the complexes, following the previously reported protocol. The cells were incubated for 72 h with different concentrations of the tested compounds (0.1, 1, 10, 25, 50, 100, and 500 µM) and the IC50 values were calculated from the percent (%) of control using the software GraphPad Prism 9 (GraphPad Software, La Jolla, CA, USA).

[2] = system: MDA-MB-231; experiment: MTT cell viability assay; assay type: cell-based, human; conditions: 72 h
Protocol: as §1, §2

[3] = system: human mammary epithelial cell line MCF-10A; experiment: MTT assay, toxicity towards normal cells; assay type: cell-based; conditions: 72 h
Protocol: as §1, §2

[4] = system: ROS production in BALB/3T3 fibroblasts; experiment: Intracellular ROS detection with DCFH2-DA; assay type: cell-based, murine; conditions: 25 µM, 24 h pre-treatment
Protocol: In vitro detection of intracellular ROS on fibroblasts BALB/3T3 using DCFH2-DA The assay to evaluate the in vitro antioxidant activity was carried out using the murine BALB/3T3 fibroblasts that were plated in a white 96 MW and then treated with the complexes at a concentration of 25 µM for 24 h. Menadione (25 µM) was then added for 15 min to induce ROS production. After treatment, the cells were washed with PBS and treated with 25 μM 2′-7′-dichlorofluorescein diacetate (DCFH2-DA, Sigma-Aldrich, St. Louis, MO, USA), and then they were incubated for 40 min at 37 °C and 5% CO2. The probe DCFH2-DA penetrates cells where it is […] into a non-fluorescent form (DCFH2) by endogenous esterases. In the presence of intracellular ROS, non-fluorescent H2DCF is oxidized to the fluorescent 2′,7′-dichlorofluorescein (DCF). Then, the cells were washed with PBS and the fluorescence was detected using a multiplate reader (λex = 485 nm, λem = 535 nm). Based on the obtained fluorescence values, the ROS production inhibition % (IROS) vs. menadione was calculated using the following formula:(1) IROS vs. Menadione (%)=FMen−FSample/FMen∗100 where FMen represents the mean fluorescence obtained after treatment with menadione alone and Fsample represents the mean fluorescence obtained after the co-treatment with the complexes and menadione.

[5] = ABTS radical scavenging assay; assay type: biochemical
Protocol: The radical scavenging properties of the complexes on a 2,20-azino-bis(3-ethylbenzothiazoline-6-sulfonate) radical cation (ABTS^+) were evaluated as previously described.
All the complexes were used at different concentrations (5, 10, 25, 50, and 100 µg/mL) and the ABTS radical scavenging activity, measured at 730 nm using a microplate reader, was expressed as inhibition percentages (%IABTS) compared tothe control, according to the following expression:(3) IABTS (%)=ABSCTRL−ABSsample/ABSCTRL∗100 where ABSCTRL and ABSsample are the absorbance at 730 nm in the control and in the presence of samples, respectively.
IC50 values were calculated from the %IABTS using GraphPad Prism 9 software (GraphPad Inc., San Diego, CA, USA). Trolox was employed as a positive control, while caffeine and theophylline were reference compounds.

[6] = DPPH radical scavenging assay; assay type: biochemical
Protocol: The radical scavenging properties of the complexes on the 1,1-diphenyl-2-picrylhydrazil (DPPH) radical were evaluated as previously described.
All the complexes were used at different concentrations (10, 25, 50, 100, and 200 µg/mL) and the DPPH radical scavenging activity, measured at 517 nm using a microplate reader, was expressed as inhibition percentages (%IDPPH) compared to the initial concentration of DPPH (control) according to the following expression:(2) IDPPH (%)=ABSCTRL−ABSsample/ABSCTRL∗100 where ABSCTRL and ABSsample are the absorbance at 517 nm in the control and in the presence of samples, respectively.
The obtained IDPPH percentages allowed us to calculate the IC50 values using Graph-Pad Prism 9 software (GraphPad Inc., San Diego, CA, USA). Trolox was employed as a positive control, while caffeine and theophylline were reference compounds.

[7] = system: Escherichia coli (ATCC 25922); experiment: MIC/MBC broth dilution; assay type: cell-based
Protocol: (§3) The bacterial strains used for MIC and MBC value determinations expressed as µg/mL by the broth dilution method, according to CLSI guidelines, were the following:
(§4) -4 Gram-negative: Escherichia coli (ATCC® 25922^TM) and Klebsiella pneumoniae (ATCC® 13883^TM);
(§5) Increasing concentrations of the complexes (50, 70, 100, 150, and 200 µg/mL) were incubated with bacteria plated in 96-well microplates at 37 °C overnight as already reported, and then bacterial growth was checked at a wavelength of 600 nm using a Multiskan spectrophotometer (model Multiskan Ex Microplate; Thermo Scientific, Nyon, Switzerland). MIC or MBC values were obtained by comparing cell density with a positive control (bacterial cells grown in LB medium were added with only the vehicle, DMSO). The results were representative of three independent experiments performed in triplicate. Ampicillin, Gentamicin, and Cephalosporin (Sigma Aldrich A9393) were used as the control for strain sensitivity.

[8] = system: Klebsiella pneumoniae (ATCC 13883); experiment: MIC/MBC broth dilution; assay type: cell-based
Protocol: as §3, §4, §5

[9] = system: Enterococcus faecalis (ATCC 19433); experiment: MIC/MBC broth dilution; assay type: cell-based
Protocol: as §3
(§6) -3 Gram-positive: Enterococcus faecalis (ATCC® 19433^TM), Staphylococcus aureus (ATCC® 23235^TM), and Staphylococcus epidermidis (ATCC® 14990™).
as §5

[10] = system: Staphylococcus aureus (ATCC 23235); experiment: MIC/MBC broth dilution; assay type: cell-based
Protocol: as §3, §6, §5

[11] = system: Staphylococcus epidermidis (ATCC 14990); experiment: MIC/MBC broth dilution; assay type: cell-based
Protocol: as §3, §6, §5

[12] = system: Pseudomonas aeruginosa (ATCC 15442); experiment: MIC/MBC broth dilution; assay type: cell-based
Protocol: as §3
as §5, with “The results were representative of three independent experiments performed in triplicate.” left out

[13] = system: Salmonella typhimurium (ATCC 14028); experiment: MIC/MBC broth dilution; assay type: cell-based
Protocol: as §3
as §5, with “The results were representative of three independent experiments performed in triplicate.” left out

[14] = system: NO production in LPS-stimulated RAW 264.7 macrophages; experiment: Griess assay, NO production; assay type: cell-based, murine; conditions: 25 µM, LPS 1 µg/mL, 24 h
Protocol: The Griess assay was performed using RAW 264.7 murine macrophages to study the anti-inflammatory activity in terms of NO production. RAW 264.7 cells were plated in the 48 multi-wells and, after 24 h, treated with the tested molecules (25 µM) and the lipopolysaccharide (LPS, Sigma Aldrich, Milan, Italy) at a final concentration of 1 µg/mL. LPS is able to induce inflammation by stimulating NO production in immune system cells such as macrophages. After 24 h, the cell medium Griess reagent (Sigma Aldrich, Milan, Italy) was mixed in with a ratio of 1:1. The Griess reagent allowed for the quantification of NO released by macrophages in the treatment medium. The mixture was left for 30 min under agitation and, subsequently, the absorbance at 540 nm was measured using a multiplate reader. The obtained absorbance allowed us to calculate the NO production % compared to the absorbance obtained for the positive control, in which the cells were treated with LPS.

[15] = system: iNOS expression in RAW 264.7 macrophages; experiment: Immunofluorescence, iNOS expression; assay type: cell-based, murine; conditions: 25 µM, co-treated with LPS 1 µg/mL
Protocol: (§7) After a PBS wash, cells were fixed using cold methanol (15 min at −20 °C) and incubated overnight at 4 °C with the primary antibodies raised against NF-κB, iNOS, TNF-α, and COX-1 and 2 (Santa Cruz Biotechnology Inc., Santa Cruz, CA, USA) diluted in BSA 2%, as previously described. […] DAPI (Sigma Aldrich, Milan, Italy) 0.2 µg/mL was added for 10 min for nuclei counterstaining. A fluorescence microscope (Leica DM 6000) was used for visualizing images, and LAS-X software 3.5.7.23225 was used for acquisition and processing.

[16] = system: COX-1 expression in RAW 264.7 macrophages; experiment: Immunofluorescence, COX-1 expression; assay type: cell-based, murine; conditions: 25 µM, co-treated with LPS 1 µg/mL
Protocol: as §7

[17] = system: COX-2 expression in RAW 264.7 macrophages; experiment: Immunofluorescence, COX-2 expression; assay type: cell-based, murine; conditions: 25 µM, co-treated with LPS 1 µg/mL
Protocol: as §7

[18] = system: NF-κB localization in RAW 264.7 macrophages; experiment: Immunofluorescence, NF-κB localization; assay type: cell-based, murine; conditions: 25 µM, co-treated with LPS 1 µg/mL
Protocol: as §7

| Compound | IC50 [1] | IC50 [2] | IC50 [3] | ROS level reduction vs. menadione [4] | IC50 [5] | IC50 [6] | M.I.C. E. coli [7] | M.I.C. K. pneumoniae [8] | M.I.C. E. faecalis [9] | M.I.C. S. aureus [10] | M.I.C. S. epidermidis [11] | M.I.C. P. aeruginosa [12] | M.I.C. S. typhimurium [13] | Reduction in NO production [14] | iNOS expression level [15] | COX-1 protein expression level [16] | Reduction in COX-2 expression (fluorescence) [17] | NF-κB intracellular localization [18] | M.B.C. E. coli [7] | M.B.C. K. pneumoniae [8] | also measured |
| --- | --- | --- | --- | --- | --- | --- | --- | --- | --- | --- | --- | --- | --- | --- | --- | --- | --- | --- | --- | --- | --- |
| 1,3,7-Trimethylxanthin-9-[(2-hydroxy-2-phenyl)ethyl-8-ylidene]Au(I) Acetate [AuL1OAc] | > 100 µM | > 100 µM | > 100 µM | ~54% | > 500 µM | > 500 µM | >200 µg/mL | >200 µg/mL | >200 µg/mL | >200 µg/mL | >200 µg/mL | >200 µg/mL | >200 µg/mL |  |  |  |  |  |  |  |  |
| CC(=O)[O][Ag-][c]1n(C)c2c(c(=O)n(C)c(=O)n2C)[n+]1CCO [AgL3OAc, 1,3,7-Trimethylxanthin-9-[(2-hydroxy)ethyl)-8-ylidene]Ag(I) Acetate] | > 100 µM | > 100 µM | > 100 µM |  | > 500 µM | > 500 µM |  | 150 µg/mL | 150 µg/mL | 125 µg/mL | 100 µg/mL | 150 µg/mL | 150 µg/mL | about 14.35% | net reduction in iNOS expression | no difference in protein expression level | about 60% | mostly cytoplasmic | > 200 µg/mL | > 200 µg/mL | M.B.C. E. faecalis [9]: > 200 µg/mL; M.B.C. S. aureus [10]: > 200 µg/mL; M.B.C. S. epidermidis [11]: > 125 µg/mL; M.B.C. P. aeruginosa [12]: > 200 µg/mL; M.B.C. S. typhimurium [13]: > 200 µg/mL |
| COc1ccc2c(c1)c(CC(=O)O)c(C)n2C(=O)c1ccc(Cl)cc1 [indomethacin, reference compound] |  |  |  |  |  |  |  |  |  |  |  |  |  | about 11.23% | lower, reaching those obtained with the CTRL cells | no difference in protein expression level | about 30% | higher cytoplasmic localization of NF-κB |  |  |  |
| Cn1c(=O)c2c(n(C)[c]([Au-][I])[n+]2CCO)n(C)c1=O [AuL3] | > 100 µM | > 100 µM | > 100 µM |  | > 500 µM | > 500 µM | >200 µg/mL | >200 µg/mL | >200 µg/mL | >200 µg/mL | >200 µg/mL | >200 µg/mL | >200 µg/mL | ~14.12% |  | no difference in protein expression level | about 40% | mostly cytoplasmic |  |  |  |
| CC(=O)[O][Ag-][c]1n(C)c2c(c(=O)n(C)c(=O)n2C)[n+]1CC(O)c1ccccc1 (racemic) [AgL1OAc, 1,3,7-Trimethylxanthin-9-[(2-hydroxy-2-phenyl)ethyl-8-ylidene]Ag(I) Acetate] | 39.6 ± 0.8 µM | 32.3 ± 0.9 µM | > 100 µM | about 61% | 149.2 ± 0.7 µM | > 500 µM |  | 125 µg/mL | 150 µg/mL | 125 µg/mL | 125 µg/mL | 125 µg/mL | 150 µg/mL |  |  |  |  |  | > 150 µg/mL | > 150 µg/mL | M.B.C. E. faecalis [9]: > 200 µg/mL; M.B.C. S. aureus [10]: > 150 µg/mL; M.B.C. S. epidermidis [11]: > 150 µg/mL; M.B.C. P. aeruginosa [12]: > 150 µg/mL; M.B.C. S. typhimurium [13]: > 200 µg/mL |
